Laboratory results published in PubChem BioAssay (NCI).
Several values for one entry are separate records, joined by “and”; a condition that tells them apart may be missing. Equal entries are not always repeated.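 The compound was tested at five concentrations on cells cultured in 96-well plates, with a 48-hour exposure period. GI50: concentration for 50% inhibition of growth. TGI: concentration producing complete growth inhibition.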

What was measured:
Experiment in all cases: NCI anticancer screen, dose series, 48 h
OVCAR-5 ovarian = test system: OVCAR-5 ovarian
SR leukemia = test system: SR leukemia
NCI-H522 lung = test system: NCI-H522 lung
KM12 colon = test system: KM12 colon
NCI-H23 lung = test system: NCI-H23 lung
HL-60(TB) leukemia = test system: HL-60(TB) leukemia
HOP-92 NSCLC = test system: HOP-92 NSCLC
SK-MEL-28 melanoma = test system: SK-MEL-28 melanoma
HOP-62 NSCLC = test system: HOP-62 NSCLC
HCT-15 colon = test system: HCT-15 colon

Structure (SMILES) | GI50 (OVCAR-5 ovarian) [µM] | TGI (OVCAR-5 ovarian) [µM] | GI50 (SR leukemia) [µM] | TGI (SR leukemia) [µM] | GI50 (NCI-H522 lung) [µM] | TGI (NCI-H522 lung) [µM] | GI50 (KM12 colon) [µM] | TGI (KM12 colon) [µM] | GI50 (NCI-H23 lung) [µM] | TGI (NCI-H23 lung) [µM] | GI50 (HL-60(TB) leukemia) [µM] | TGI (HL-60(TB) leukemia) [µM] | TGI (HOP-92 NSCLC) [µM] | GI50 (SK-MEL-28 melanoma) | TGI (SK-MEL-28 melanoma) | GI50 (HOP-62 NSCLC) [µM] | TGI (HOP-62 NSCLC) | GI50 (HCT-15 colon) [µM] | TGI (HCT-15 colon) [µM] | GI50 (HOP-92 NSCLC) [µM]
O=c1[nH]c(=O)n([C@H]2CCCO2)cc1F | 2660 | > 5000 | 473 | > 2360 | > 2650 | > 5000 | 1320 | > 5000 | 936 | > 5000 | 1030 | > 5000 | > 5000 | 1040 µM | > 5000 µM | 2340 | 994 µM and > 4660 µM | 1050 | > 5000 | 
O=C(NCc1ccc(S(=O)(=O)c2cc(F)cc(F)c2)cc1)c1ccc2nccn2c1 | 0.331 | > 100 |  | > 100 | < 0.01 | 43 | 0.328 | > 100 | > 48.7 | > 100 | > 40.2 | > 100 | > 100 | > 39.8 µM | 98.1 µM | 23 | 74 µM | 0.0472 | > 100 | 22.5
COC(=O)CCC1=C(CC(=O)OC)C(C)=N/C1=C\c1[nH]c(-c2ccc[nH]2)cc1OC | 3.9 | 18.8 | 1.71 | 7.7 | 1.81 | 3.97 | 2.67 | 15 | 4.42 | 21 | 2.56 | 14.3 | 5.9 | 12.3 µM | 25 µM | 8.56 | 24.2 µM | 2.04 | 15.2 | 1.83
CCCCCCCCCCCCOC1C(C(CC(=O)NCCN2CCCC2)NS(=O)(=O)c2cc(Cl)cc(Cl)c2)OC2OC(C)(C)OC21 (stereo not drawn) | 2.17 | 4.34 | 1.48 | 3.83 | 2.11 | 3.98 | 1.81 | 3.45 | 2.21 | 4.76 | 1.64 | 3.76 | 3 | 1.94 µM and 1.59 µM | 3.55 µM and 3.1 µM | 1.74 | 3.39 µM | 1.71 | 3.18 | 1.49
Cc1cccc(C)c1NC(=O)C(=O)CC(=O)c1cccc([N+](=O)[O-])c1 |  | > 100 |  | > 100 |  | > 100 |  | > 100 |  | > 100 |  | > 100 | > 100 |  | > 100 µM |  | > 100 µM |  | > 100 | 
O=c1nc(-c2ccccc2)cc(-c2ccccc2O)[nH]1 |  | > 100 |  | > 100 |  | > 100 |  | > 100 |  | > 100 |  | > 100 | > 100 |  | > 100 µM |  | > 100 µM |  | > 100 | 
O=C(N/N=C/c1ccc([N+](=O)[O-])o1)c1ccc(O)cc1 | 9.32 | > 100 | 2.84 | > 100 | 6.59 | 26.7 | 5.43 | > 100 | 2.97 | 11.4 | 2.48 | 6.9 | 80.9 | 14.7 µM | > 100 µM | 6.2 | > 100 µM | 4.06 | 25.4 | 17.5
CC/C=C/C/C=C/C/C=C/C/C=C/C/C=C/C/C=C/CCC(=O)Nc1ccn([C@@H]2O[C@H](CO)[C@@H](O)C2(F)F)c(=O)n1 | 2.83 | > 60.8 | 0.0387 | 8.3 | 0.261 | 37.7 | 1.42 | 39.8 | 0.019 | 9.3 | 0.059 | 9.24 | 30.5 | 11.5 µM | 25.8 µM | 0.0293 | 6.55 µM | 1.82 | 41.3 | 0.652
COC(=O)c1cccc2cccc(C(=O)Nc3ccc(Cl)cc3)c12 |  | > 100 |  | 50.8 |  | > 91 |  | > 100 |  | > 100 |  | 22.1 | > 100 |  | > 100 µM |  | > 100 µM |  | > 53.1 | 
CCN(CC)CCNC(=O)c1ccc(C)c(OCc2ccccc2)c1[N+](=O)[O-] |  | 81.3 |  | 69.9 |  | 76.5 |  | > 81.1 |  | > 100 |  | 53.3 | 83.2 |  | 34.2 µM |  | > 75.4 µM |  | 47.4 | 
COCOc1ccc(C2(O)Oc3cc(OCOC)ccc3C2C)c(O)c1 (stereo not drawn) |  | 31.3 |  | 75.1 |  | 32.8 |  | 31.7 |  | 23.9 |  | 44 | 30.5 |  | 31 µM |  | 32 µM |  | 22.3 | 
CCOC(=O)/C(=C/c1cccc(C#N)c1)N(CC)CC |  | > 100 |  | > 100 |  | > 100 |  | > 100 |  | > 100 |  | > 100 | > 100 |  | > 100 µM |  | > 100 µM |  | > 100 | 
CCCCCc1ccc(S(=O)(=O)Nc2cc(-c3csc(NC(C)=O)n3)ccc2N2CCN(C)CC2)cc1 | 5 | 9.55 | 0.929 | 2.77 | 6.35 | 13 | 5.65 | 11 | 4.78 | 9.53 | 1.37 | 6.09 | 8.84 | 3.46 µM | 7.49 µM | 5.51 | 12.2 µM | 1.08 | 4.49 | 3.68
Nc1nc(N)nc(CCCc2nc(N)nc(N)n2)n1 |  | > 100 |  | > 100 |  | > 100 |  | > 100 |  | > 100 |  | > 100 | > 100 |  | > 100 µM |  | > 100 µM |  | > 100 | 
O=C(OCC(OC(=O)c1ccccc1)C(OC(=O)c1ccccc1)C(OC(=O)c1ccccc1)c1cnn(-c2ccccc2)n1)c1ccccc1 (stereo not drawn) |  | > 100 |  | > 100 |  | > 100 |  | > 100 |  | > 100 |  | > 100 | > 100 |  | > 100 µM |  | > 100 µM |  | > 100 | 
NC(=S)N/N=C/c1cc(-c2cccc(N)c2)ccn1 | 3.96 | > 100 | 0.346 | > 27.9 | 0.202 | 0.564 | 1.11 | > 41.2 | 1.91 | > 100 | 0.281 |  | 40 | 4.35 µM | > 100 µM | 2.44 | > 36.9 µM | 2.71 | > 100 | 0.314
CC1C(=O)OC2CC[N+]3([O-])CC=C(COC(=O)C(C)(O)C1(C)O)C23 (stereo not drawn) |  | > 100 |  | > 100 |  | > 100 |  | > 100 |  | > 100 |  | > 100 | > 100 |  | > 100 µM |  | > 100 µM |  | > 100 | 
O=c1c2ccccc2nc(-c2ccccc2)n1NC(=S)Nc1ccccc1 |  | > 100 |  | > 100 |  | > 100 |  | > 100 |  | > 100 |  | > 100 | > 100 |  | > 100 µM |  | > 100 µM |  | > 100 | 
Nc1ccccc1SC1CC(=O)N(c2ccc(Cl)c(Cl)c2)C1=O (stereo not drawn) | > 100 | > 100 | 22.4 | > 100 | 19.4 | > 100 | 16.2 | > 100 | 23.8 | > 100 | > 100 | > 100 | 42.1 | 45.4 µM | > 100 µM | 21 | 66.7 µM | 28.6 | > 100 | 14.9
Cc1nn(C(=O)c2ccc(Cl)cc2)c2c1C(c1ccc(O)cc1)SC(N)=N2 (stereo not drawn) |  | > 10 |  | > 10 |  | > 10 |  | > 10 |  | > 10 |  | > 10 | > 10 |  | > 10 µM |  | > 10 µM |  | > 10 | 
COC(C(=O)[C@@H](O)[C@@H](C)O)[C@@H]1Cc2cc3cc(O[C@H]4C[C@@H](O[C@H]5C[C@@H](O)[C@H](O)C(C)O5)[C@H](O)C(C)O4)c(C)c(O)c3c(O)c2C(=O)[C@H]1O[C@H]1C[C@@H](O[C@H]2C[C@@H](O[C@H]3C[C@@H](O)[C@H](OC)C(C)O3)[C@@H](O)C(C)O2)[C@H](O)C(C)O1 (stereo partly drawn) |  | > 33.3 |  | > 33.3 | 0.0101 | 0.0569 |  | > 33.3 | 0.0184 | 0.234 | 0.0651 | 0.767 | 1.27 | 0.00946 µM | 0.0647 µM | 0.0151 | 0.717 µM | 0.272 | > 33.3 | 0.0122
COc1ccc2c(c1)C(C)Cc1c(ncnc1-n1cnc3cc(C)ccc31)N2C (stereo not drawn) | 0.294 | 26.8 | 0.0443 | 11.1 | 0.0544 | 0.325 | 0.132 | 11.7 | 0.4 | 23.4 | 0.0956 | 0.433 | 15.9 | 0.575 µM | 19.8 µM | 0.0707 | 18.2 µM | 0.207 | 12.9 | 0.329
O=C(N/N=C/c1c(Cl)cccc1Cl)c1ccc(C(F)(F)F)nc1Nc1cccc(C(F)(F)F)c1 | 4.06 | > 30.2 | 0.457 | 14.4 | 1.76 | > 33.6 | 1.1 | > 30 | 1.42 | > 21.8 | 0.552 |  | 3 | 1.82 µM | > 37.5 µM | 1.29 | 14.4 µM | 0.437 | > 100 | 0.293
COc1ccc2c(Oc3ccc(NC(=O)c4c(C)n(CC(C)(C)O)n(-c5ccccc5)c4=O)nc3)ccnc2c1 | 37.8 | > 89.6 | 8.57 | > 100 | 6.84 | 26.7 | 2.23 | > 100 | 18.4 | > 100 | 14.6 | > 62.3 | 16.7 | 22.3 µM | > 100 µM | 27.8 | > 100 µM | 6.75 | > 100 | 1.79
C[C@H]1CCC/C=C/[C@@H]2C[C@H](O)C[C@H]2[C@H](O)[C@@H](SCC(O)CO)CC(=O)O1 (stereo partly drawn) | 41.1 | > 100 | 29 | 96.8 | 95.6 | > 100 | 3.81 | 20 | 17.8 | 60.5 | 29.3 | 94.7 | > 100 | 13.3 µM | > 100 µM | 33.2 | > 100 µM | 18.9 | 46.2 | 37.7
